Consider 28 molecules from patent US20060063784A1, “Method of using substituted pyrazolo [1,5-a] pyrimidines” (priority 2004, published 2006).

Like-named read-outs stand apart in the source and are kept apart here. Where only a bound is given, the exact number is not on record here.

Assay [1] deals with 80S14 (p21-deficient) cells. The assay is described as follows: Cytotoxicity assay using isogenic cell lines: IC50 in 80S14 (p21-deficient) cells, SRB. The class given is cell-based, human. The following applies: SRB. Put shortly: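 80S14 (p21-deficient) cells seeded at 12,000 cells/well overnight, then exposed 5 days at 37 °C to serial dilutions (5 pM–50 μM or 170 pg/ml–10 μg/ml). TCA-fixed, sulforhodamine B-stained, absorbance at 560 nm; IC50 taken from cytotoxicity curves versus untreated controls.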

The next assay relates to LoVo Colon cell line. The assay is described as follows: Cytotoxicity assay using LoVo colon cell line, SRB. The class given is cell-based. The settings on record: 4 days incubation, SRB, read-out: Inhibition of LoVo. Here is the method:
Cytotoxicity Assay Using LoVo Colon Cell Line: • 1. LoVo Colon cell lines were cultured in RPMI 1640 medium (Gibco/Invitrogen Life Sciences) supplemented with 10% fetal bovine serum (FBS, Gibco) and 50 μg/ml entamicin (Gibco). Cells were maintained at 37° C. under 7% CO2. • 2. Cells were seeded in 96-well microtiter plates (Corning/Costar) in a volume of 0.15 ml of growth medium (4000 cells/well). Plates were incubated at 37° C. overnight (18-24 hours). • 3. Serial dilutions of the test agent were added to each well. Dilutions were prepared in growth medium. One of two dose ranges was used: 5 pM to 20 μM or 170 pg/ml to 10 μg/ml. Cells were incubated with the test compounds for 4 days at 37° C. • 4. Surviving cells were processed using the SRB asay, as described above.
5. The drug concentration that inhibits cell proliferation by 50% relative to untreated controls (IC50) was determined from cytotoxicity curves using the LSW Toolbox graphing application.

The mark [2] stands for this setting: Homo sapiens, 120 h, 80S14 (p21-deficient) cells, 5 days, class symbols, read-out: IC50 for 80S14.
Where [3] appears, read: Homo sapiens, 96 h, Cellular activity in LoVo cell.
Where [4] appears, read: Homo sapiens, 120 h, 80S14 p21-deficient cells, 5 days incubation, read-out: IC50 for 80SI4.
Setting [5] is: Homo sapiens, 96 h, LoVo colon cells.
[6] abbreviates: 80S14 (p21-deficient) cells, 5 days, class symbols, read-out: IC50 for 80S14.

With `CC(C)CC(=O)Nc1cccc(-c2ccnc3c(-c4cccc5cccnc45)cnn23)c1` [Example 468, 3-Methyl-N-[3-(3-quinolin-8-ylpyrazolo[1,5-a]pyrimidin-7-yl)phenyl]butanamide], the IC50 in assay [1] (setting [2]) is 1 to 10 µM; in the assay with LoVo Colon cell line (setting [3]), 0.1 to 1 µM.

For `CC(CC(=O)Nc1cc(-c2ccnc3c(C(=O)c4cccs4)cnn23)ccc1F)C(F)(F)F` (stereo not shown) [Example 356, 4,4,4-Trifluoro-N-{2-fluoro-5-[3-(thien-2-ylcarbonyl)pyrazolo[1,5-a]pyrimidin-7-yl]phenyl}-3-methylbutanamide], the results for the IC50 (in assay [1] (setting [2]); in the assay on LoVo Colon cell line (setting [3])) were under 1 µM and under 0.1 µM, respectively.

As for `O=C(c1cccs1)c1cnn2c(-c3cccc(-c4ccn(CC5CCC5)n4)c3)ccnc12` [Example 515, (7-{3-[1-(Cyclobutylmethyl)-1H-pyrazol-3-yl]phenyl}pyrazolo[1,5-a]pyrimidin-3-yl)(thien-2-yl)methanone], the IC50 in assay [1] (setting [2]) was under 1 µM; in the assay with LoVo Colon cell line (setting [3]) it was under 0.1 µM.

For the molecule `O=C(CC1CCCCC1)Nc1cccc(-c2ccnc3c(C(=O)c4cccs4)cnn23)c1` [Example 74, 2-cyclohexyl-N-{3-[3-(thien-2-ylcarbonyl)pyrazolo[1,5-a]pyrimidin-7-yl]phenyl}acetamide], the IC50 is under 1 µM in assay [1] (setting [4]) and under 0.1 µM in the assay with LoVo Colon cell line (setting [5]).

`Cc1cc(-c2cccc(NC(=O)OCCCl)c2)n2ncc(C(=O)c3cccs3)c2n1` [Example 198, 2-chloroethyl 3-[5-methyl-3-(thien-2-ylcarbonyl)pyrazolo[1,5-a]pyrimidin-7-yl]phenylcarbamate]: the IC50 in assay [1] (setting [4]) was under 1 µM; with LoVo Colon cell line (setting [5]) it was under 0.1 µM.

Turning to `O=C(CCc1cccnc1)Nc1cccc(-c2ccnc3c(C(=O)c4cccs4)cnn23)c1` [Example 448, 3-Pyridin-3-yl-N-{3-[3-(thien-2-ylcarbonyl)pyrazolo[1,5-a]pyrimidin-7-yl]phenyl}propanamide], the IC50 in assay [1] (setting [2]) is 10 to 50 µM; in the assay on LoVo Colon cell line (setting [3]) it was 0.1 to 1 µM.

As to “tert-Butyl 4-[2-oxo-2-({3-[3-(thien-2-ylcarbonyl)pyrazolo[1.5-a]pyrimidin-7-yl]phenyl}amino)ethyl]piperidine-1-carboxylate [Example 392]”, the values for the IC50 (in assay [1] (setting [6]); with LoVo Colon cell line (Cellular activity in LoVo cell)) were under 1 µM and under 0.1 µM, respectively.

Turning to `CN(C)c1ccc(-c2cccc(-c3ccnc4c(C(=O)c5cccs5)cnn34)c2)cc1` [Example 450, {7-[4′-(Dimethylamino)-1,1′-biphenyl-3-yl]pyrazolo[1,5-a]pyrimidin-3-yl}(thien-2-yl)methanone], the results for the IC50 (in assay [1] (setting [2]); in the assay on LoVo Colon cell line (setting [3])) were under 1 µM and under 0.1 µM, respectively.

Consider `O=C(NCC1CCCCC1)Nc1cccc(-c2ccnc3c(C(=O)c4cccs4)cnn23)c1` [Example 160, N-(cyclohexylmethyl)-N′-{3-[3-(thien-2-ylcarbonyl)pyrazolo[1,5-a]pyrimidin-7-yl]phenyl}urea], for which the IC50 in assay [1] (setting [4]) lay within 1 to 10 µM; with LoVo Colon cell line (setting [5]), 0.1 to 1 µM.

`O=C(NCCc1ccccc1)Nc1cccc(-c2ccnc3c(C(=O)c4cccs4)cnn23)c1` [Example 2, N-(2-phenylethyl)-N′-{3-[3-(thien-2-ylcarbonyl)pyrazolo[1,5-a]pyrimidin-7-yl]phenyl}urea]: the IC50 fell in the range of 1 to 10 µM in assay [1] (setting [4]) and 0.1 to 1 µM in the assay with LoVo Colon cell line (setting [5]).

As to `O=C(c1cccs1)c1cnn2c(-c3cccc(NC(=O)C4CCCCC4)c3)ccnc12` [Example 282, N-{3-[3-(2-Thienylcarbonyl)pyrazolo[1,5-a]pyrimidin-7-yl]phenyl}cyclohexanecarboxamide], the values for the IC50 (in assay [1] (setting [2]); with LoVo Colon cell line (setting [3])) were under 1 µM and 0.1 to 1 µM, respectively.

For the molecule `C=C(CC)CNc1cccc(-c2ccnc3c(C(=O)c4cccs4)cnn23)c1` [Example 435, (7-{3-[(2-Ethylprop-2-enyl)amino]phenyl}pyrazolo[1,5-a]pyrimidin-3-yl)(thien-2-yl)methanone], the IC50 in assay [1] (setting [2]) was in the range of 1 to 10 µM; in the assay with LoVo Colon cell line (setting [3]) it was 0.1 to 1 µM.

Take `CCCCNC(=S)Nc1cccc(-c2ccnc3c(C(=O)c4cccs4)cnn23)c1` [Example 364, N-Butyl-N′-{3-[3-(thien-2-ylcarbonyl)pyrazolo[1,5-a]pyrimidin-7-yl]phenyl}thiourea]: the values for the IC50 (in assay [1] (setting [2]); with LoVo Colon cell line (setting [3])) were under 1 µM and under 0.1 µM, respectively.

For `CC(C)NC(=O)Nc1ccc(-c2ccnc3c(C(=O)c4cccs4)cnn23)s1` [Example 329, N-Isopropyl-N′-{5-[3-(thien-2-ylcarbonyl)pyrazolo[1,5-a]pyrimidin-7-yl]thien-2-yl}urea], the IC50 was 1 to 10 µM in assay [1] (setting [2]) and 0.1 to 1 µM in the assay on LoVo Colon cell line (setting [3]).

Regarding `CCCCCNC(=O)Nc1cccc(-c2ccnc3c(C(=O)c4cccs4)cnn23)c1` [Example 165, N-pentyl-N′-{3-[3-(thien-2-ylcarbonyl)pyrazolo[1,5-a]pyrimidin-7-yl]phenyl}urea], the figures for the IC50 (in assay [1] (setting [4]); with LoVo Colon cell line (setting [5])) were under 1 µM and 0.1 to 1 µM, respectively.

In the case of `O=C(Nc1cccc(-c2ccnc3c(C(=O)c4cccs4)cnn23)c1)OC1CCOCC1` [Example 176, tetrahydro-2H-pyran-4-yl 3-[3-(thien-2-ylcarbonyl)pyrazolo[1,5-a]pyrimidin-7-yl]phenylcarbamate], the results for the IC50 (in assay [1] (setting [4]); with LoVo Colon cell line (setting [5])) were under 1 µM and under 0.1 µM, respectively.

As to `CCCCCCCCCC(C)CNc1cccc(-c2ccnc3c(C(=O)c4cccs4)cnn23)c1` (stereo not shown) [Example 447, (7-{3-[(2-Methylundecyl)amino]phenyl}pyrazolo[1,5-a]pyrimidin-3-yl)(thien-2-yl)methanone], the IC50 in assay [1] (setting [2]) was 10 to 50 µM; in the assay with LoVo Colon cell line (setting [3]), 1 to 20 µM.

As to `O=C(Nc1cccc(-c2ccnc3c(C(=O)c4cccs4)cnn23)c1)OC1C=CCCC1` (stereo not shown) [Example 173, cyclohex-2-en-1-yl 3-[3-(thien-2-ylcarbonyl)pyrazolo[1,5-a]pyrimidin-7-yl]phenylcarbamate], the IC50 in assay [1] (setting [4]) was under 1 µM; in the assay on LoVo Colon cell line (setting [5]), under 0.1 µM.

`O=C(c1cccs1)c1cnn2c(-c3ccc(F)c(N(C(=O)OCC(Cl)(Cl)Cl)C(=O)OCC(Cl)(Cl)Cl)c3)ccnc12` [Example 357, bis(2,2,2-Trichloroethyl) 2-fluoro-5-[3-(thien-2-ylcarbonyl)pyrazolo[1,5-a]pyrimidin-7-yl]phenylimidodicarbonate]: the results for the IC50 (in assay [1] (setting [2]); in the assay on LoVo Colon cell line (setting [3])) were under 1 µM and under 0.1 µM, respectively.

In the case of `Cc1cc(C)cc(-c2cnn3c(-c4cccc(-c5nnn(CCN6CCOCC6)n5)c4)ccnc23)c1` [Example 493, 3-(3,5-Dimethylphenyl)-7-{3-[2-(2-morpholin-4-ylethyl)72H-tetraazol-5-yl]phenyl}pyrazolo[1,5-a]pyrimidine], the figures for the IC50 (in assay [1] (setting [6]); in the assay with LoVo Colon cell line (Cellular activity in LoVo cell)) were 1 to 10 µM and 0.1 to 1 µM, respectively.

For the molecule `O=C(Nc1cccc(-c2ccnc3c(C(=O)c4cccs4)cnn23)c1)NC1CCCCC1` [Example 3, N-cyclohexyl-N′-{3-[3-(thien-2-ylcarbonyl)pyrazolo[1,5-a]pyrimidin-7-yl]phenyl}urea], the IC50 in assay [1] (setting [4]) was under 1 µM; in the assay with LoVo Colon cell line (setting [5]), under 0.1 µM.

With `CC(C)NC(=O)Nc1cc(-c2ccnc3c(C(=O)c4cccs4)cnn23)ccc1F` [Example 382, N-{2-Fluoro-5-[3-(thien-2-ylcarbonyl)pyrazolo[1,5-a]pyrimidin-7-yl]phenyl}-N′-isopropylurea], the IC50 in assay [1] (setting [2]) is under 1 µM; in the assay on LoVo Colon cell line (setting [3]) it was under 0.1 µM.

Take `CN(C)C(=O)Nc1cccc(-c2ccnc3c(C(=O)c4cccs4)cnn23)c1` [Example 46, N,N-dimethyl-N′-{3-[3-(thien-2-ylcarbonyl)pyrazolo[1,5-a]pyrimidin-7-yl]phenyl}urea]: the IC50 fell in the range of 1 to 10 µM in assay [1] (setting [4]) and 1 to 2 µM with LoVo Colon cell line (setting [5]).

`CC(C)CC(=O)Nc1cccc(-c2ccnc3c(-c4cccc(C=O)c4)cnn23)c1` [Example 487, N-{3-[3-(3-Formylphenyl)pyrazolo[1,5-a]pyrimidin-7-yl]phenyl}-3-methylbutanamide]: the IC50 was 10 to 50 µM in assay [1] (setting [2]) and 1 to 20 µM with LoVo Colon cell line (setting [3]).

`O=C(c1cccs1)c1cnn2c(-c3cccc(NC/C=C/c4ccc([N+](=O)[O-])cc4)c3)ccnc12` [Example 398, [7-(3-{[(2E)-3-(4-Nitrophenyl)prop-2-enyl]amino}phenyl)pyrazolo[1,5-a]pyrimidin-3-yl] (thien-2-yl)methanone]: the IC50 in assay [1] (setting [2]) is 10 to 50 µM; in the assay with LoVo Colon cell line (setting [3]) it was 1 to 20 µM.

`O=C(CC1CCCC1)Nc1cccc(-c2ccnc3c(C(=O)c4ccco4)cnn23)c1` [Example 303, 2-Cyclopentyl-N-{3-[3-(2-furoyl)pyrazolo[1,5-a]pyrimidin-7-yl]phenyl}acetamide]: the IC50 in assay [1] (setting [2]) was under 1 µM; with LoVo Colon cell line (setting [3]), under 0.1 µM.

`CCCCOC(=O)Nc1cccc(-c2cc(C)nc3c(C(=O)c4cccs4)cnn23)c1` [Example 195, butyl 3-[5-methyl-3-(thien-2-ylcarbonyl)pyrazolo[1,5-a]pyrimidin-7-yl]phenylcarbamate]: the IC50 in assay [1] (setting [4]) is under 1 µM; in the assay with LoVo Colon cell line (setting [5]), under 0.1 µM.

For `C=C(C)C(=O)Nc1cccc(-c2ccnc3c(C(=O)c4cccs4)cnn23)c1` [Example 44, 2-methyl-N-{3-[3-(thien-2-ylcarbonyl)pyrazolo[1,5-a]pyrimidin-7-yl]phenyl}acrylamide], in the assay with LoVo Colon cell line (setting [5]), the IC50 was under 0.1 µM.
